Source: article PMC3433414, “Oral Administration of the Pimelic Diphenylamide HDAC Inhibitor HDACi 4b Is Unsuitable for Chronic Inhibition of HDAC Activity in the CNS In Vivo” (PLoS ONE, 2012)
Entries after “also recorded” stand apart in the source; their conditions may differ. Values belong to the compound of their own block, whether it stands above or below them.

Experiments:
[1] = Solubility in water, formulations and DMSO; assay type: physicochemical
Experimental: (§1) Thomas and colleagues reported that a solution of 4b at 1 mg/mL was previously obtained using this procedure. […] We therefore prepared both TFA and hydrochloride (HCl) salts of 4b to establish whether they could offer improved solubility. Neither salt form of 4b was particularly soluble in water (<1 mg/ml). […] A study of the stability of the TFA salt also raised another more worrying issue in the use of 2-hydroxypropyl-β-cyclodextrin–complexed 4b salts for potential in vivo studies. […] The 4b. TFA cyclodextrin suspension targeted at 1 mg/ml with heating gave an initial (day 1) measured value of 0.75 mg/ml total 4b, with only 0.27 mg/mL solubilised as quantified in the sample after filtration. The lower than expected initial quantification of 4b was most likely due to the TFA salt rapidly degrading upon heating. Indeed, we always found the presence of the cyclised benzimidazole conversion product, named throughout as product C1, in the salt formulations even at t = 0 after preparation. Furthermore, the suspension was not stable upon standing in the dark with gentle shaking at room temperature, with a further 28% decrease observed in parent (4b) concentration on day 7 analysis, compared to day 1.
As a consequence de novo formulation attempts were made with the stable free base form. After several trials with different excipients, we were able to reach a soluble formulation preparation of 1 mg/ml 4b in 2% N-methyl-2-pyrollidone, 18% polyethylene glycol 400, 10% solutol HS-15 and 70% (1% Lutrol F68 in water), a vehicle which we have previously used without any adverse effects in R6/2 model chronic efficacy trials, but is unlikely to be palatable to mice in drinking water. With this concentration, a single oral gavage dose will result in a maximum of 10 mg/kg dose level (assuming a maximum dose volume of […]), considerably lower than that estimated to have been used by Thomas et al (150 mg/kg day in drinking water). In an attempt to replicate the original dose level as close as possible, it became necessary to formulate the test compound in suspension. We achieved a stable homogeneous suspension of free base 4b up to 100 mg/ml in 0.5% carboxymethylcellulose (medium viscosity) in reverse osmosis deionized (RODI) water. This suspension was used to evaluate the oral pharmacokinetics of 4b in mice. […]

[2] = Chemical stability in formulation or solution; assay type: physicochemical
Experimental: as §1, with “TFA cyclodextrin suspension targeted at 1 mg/ml with heating gave an initial (day 1) measured value of 0.75 mg/ml total 4b, with only 0.27 mg/mL solubilised as quantified in the sample after filtration.” left out
According to Thomas et al, verification of an acute pharmacodynamic response (the reversal of transcriptional dysregulation in the R6/2 model) was achieved by the repeated once daily injection of 150 mg/kg 4b in 50∶50 DMSO: PBS for three consecutive days. […] The lack of any pharmacodynamic response predictive of central Class I HDAC inhibition when 4b was dosed orally at 150 mg/kg twice daily for 5 days confirmed this prediction.

[3] = Solubility in water, formulations and DMSO; assay type: physicochemical; details: cyclodextrin formulation prepared without heating
[4] = Hepatic microsomal stability; assay type: in vitro ADME, mouse; details: mouse hepatic microsomes; parent 4b
Experimental: Incubations of test compounds (1 µM initial concentration, n = 2) were carried out with pooled hepatic microsomes (0.25 mg protein/mL in 0.1 M phosphate buffer pH 7.4). NADPH (1 mM) was added to initiate the reactions. The incubations were performed at 37°C. Samples (100 µL) were taken from the incubation at 0, 5, 10, 20 and 40 min and added to 100 µL of acetonitrile containing carbamazepine as analytical internal standard, to terminate the reaction. Samples were centrifuged and the supernatant fractions analysed by LC-MS/MS. The instrument responses (i.e. chromatographic peak heights), normalized by internal standard response were referenced to the zero time-point samples (as 100%) in order to determine the percentage of compound remaining.
Ln plots of the % remaining, for each compound, were used to determine the half-life for the microsomal incubations.
Half-life values were calculated from the relationship. [drawing 2] where λ was the slope of the Ln concentration vs time curve.
The in vitro intrinsic clearance, CLint (µL/min/mg microsomal protein), was calculated using the following formula: [drawing 3]
When quantification was required, calibration standards for parent compound and metabolites were prepared in control hepatic microsomes and extracted and analysed as described for the study samples. Quantification of parent compound or metabolite was by extrapolation from the calibration line.

[5] = system: endogenous Class I HDACs/HDAC6; test: Cellular HDAC assay, Boc_Lys_Ac substrate, Jurkat E6.1 cells; assay type: cell-based; details: up to 50 µM; 5 h incubation
Experimental: Briefly, Jurkat E6.1 cells (obtained from the European Collection of Cell Cultures (ECACC)) were plated into 384 well plates at 75,000 cells/well in cellular assay buffer (RPMI without phenol red, 0.1% Fetal Bovine Serum, 10 mM HEPES, 1 mM Sodium Pyruvate). […] Fluorescent counts were read the following morning on the Perkin Elmer EnVision.
Each compound was tested in duplicate in concentration-response format on 3 separate days. […] A full dose response of reference compound was always included alongside the profiling, to ensure that assay parameters remained within acceptable limits.

HDAC3-NcoR2 = target: T1, HDAC3-NcoR2 (Homo sapiens, UniProt O15379); test: Two-step fluorogenic deacetylase assay, recombinant HDAC3; assay type: biochemical; details: standard 1 h pre-incubation conditions
T1 construct: purified recombinant human full length HDAC1 (cat# 50051), HDAC2 (cat# 50052), HDAC3-NcoR2 (cat# 50003); purchased BPS Bioscience (San Diego, CA) 50003
Experimental: As described, the length of compound-enzyme incubation has been reported to be critical for this class of HDAC inhibitors, where a unique time-dependent increase in affinity and subsequent potency has been observed [36]–[38]. […] To better mimic physiological conditions, our experiments were performed at 37°C as opposed to room temperature as reported in previous studies. […] To confirm that this shift was independent of the time of 4b in aqueous solution, 4b was applied immediately to the enzyme-substrate mix both after preparing in aqueous buffer, and 120 min after preparation.
To assess the biochemical and cellular potency of 4b and its conversion products/metabolites, we utilized the two-step fluorogenic assay which measures the HDAC-mediated catalytic conversion of synthetic acetylated lysine substrates. In brief, on deacetylation of the substrates by HDAC activity, a protease site is unmasked which allows subsequent trypsin-mediated cleavage and release of the highly flourescent AMC molecules in a subsequent step of the assay. The substrates used were Lys_Ac_AMC (Bachem I-1875) for HDAC3 and (Ac)Arg-Gly-Lys(Ac) (Bachem I-1925) for HDAC1 and HDAC2. The final substrates used for each enzyme assessment were carefully selected after assessing the catalytic turnover of each of these substrates against HDAC1, HDAC2 and HDAC3 respectively, and selecting the ones that performed best. To assess Class IIa enzyme activity (HDAC4, 5, 7, 9) and Class I HDAC8 activity, we used the alternative substrate Boc_Lys_TFA (Bachem I-1985), equivalent to substrate 4 of [42]. Class IIa HDACs have approximately 1000-fold less catalytic activity than Class 1 enzymes, and show only extremely low turnover of acetylated substrates due to a Tyr to His mutation in the active site. However, the relatively labile and sterically more demanding trifluoracetyl group is readily hydrolyzed by the catalytically less avid Class IIa enzymes, allowing measurement of Class IIa activity using the 2-step fluorogenic assay. Intriguingly the Boc_Lys_TFA substrate seems to show almost total selectivity for Class IIa enzymes over class I and Class IIb enzymes, with the exception of HDAC8 ([42], and internal data).
(§2) For evaluation of the class selectivity of the compounds, we assessed inhibition against purified recombinant human full length HDAC1 (cat# 50051), HDAC2 (cat# 50052), HDAC3-NcoR2 (cat# 50003) and HDAC8 (cat# 50008): as representative of Class I activity; catalytic domain HDAC4(αα 648–1057), HDAC5 (αα 657–1123; cat # 50005), HDAC7 (αα 518-end; cat # 50007) and HDAC9 (αα 604–1066; cat # 50009) activity: representing all Class IIa activity; and full length HDAC6 (cat#50006): representing Class IIb activity. With the exception of purified catalytic domain HDAC4, which was prepared for us by Emerald Biosciences (Seattle, WA), all HDAC enzymes were purchased from BPS Bioscience (San Diego, CA).
Unless otherwise stated in the text, assays were run in the following format in 384-well plates using automated liquid handling procedures. Briefly, frozen enzyme stock and compounds were diluted in assay buffer (50 mM Tris-HCl, 137 mM NaCl, 2.7 mM KCl, 1 mM MgCl2 at pH 8.0) and added to plates at concentrations sufficient to achieve a 16-point concentration-response curve from 50 µM to 1 nM at 1% DMSO final concentration, after addition of all reagents. Substrate diluted in assay buffer was then added and plates were incubated after brief shaking for 60 min at 37°C. Following incubation, a developer/stop-step was introduced to terminate the reaction and cleave the fluorescent substrate: either the addition of trypsin with 10 µM Compound 26 [44] for the Class IIa enzymes, or trypsin with 5 µM Trichostatin A (TSA) for the Class I/IIb enzymes. Plates were briefly shaken and then returned to the incubator for a further 60 min, followed by measurement of fluorescence per well (Ex 355 nm, Em 460 nm) on a Perkin Elmer EnVision. […]

Plasma stability = assay type: in vitro ADME, mouse; details: mouse plasma
Experimental: Incubations of test compound (5 µM initial concentration, n = 2) were carried out with pooled mouse plasma or BSA (45 mg/mL in 0.1 M phosphate buffered saline). The incubations were performed at 37°C. Samples (50 µL) were obtained from the incubation at 0, 10, 30, 120, 240, 360 and 1440 min, and added to 150 µL of acetonitrile containing carbamazepine as analytical internal standard to terminate the reaction. Samples were centrifuged and the supernatant fractions analysed by LC-MS/MS.
For half-life determinations, the instrument responses (peak areas) normalized for internal standard response, were referenced to the zero time-point samples (as 100%) in order to determine the percentage of compound remaining. Ln plots of the % remaining, for each compound, were used to determine the half-life for the plasma incubations. Half-life values were calculated from the relationship:-. [drawing 1] Where λ was the slope of the natural logarithmic (Ln) concentration vs time curve.
When quantification was required, calibration standards for parent compound and metabolites were prepared in control plasma and extracted and analysed as described for the study samples. Quantification of parent compound or metabolite was by extrapolation from the calibration line.

HDACs = test: Biochemical HDAC assays (whole panel); design: species or system human; details: up to 50 µM
From the text: To assess the biochemical and cellular potency of 4b and its conversion products/metabolites, we utilized the two-step fluorogenic assay which measures the HDAC-mediated catalytic conversion of synthetic acetylated lysine substrates. In brief, on deacetylation of the substrates by HDAC activity, a protease site is unmasked which allows subsequent trypsin-mediated cleavage and release of the highly flourescent AMC molecules in a subsequent step of the assay. The substrates used were Lys_Ac_AMC (Bachem I-1875) for HDAC3 and (Ac)Arg-Gly-Lys(Ac) (Bachem I-1925) for HDAC1 and HDAC2. […] However, the relatively labile and sterically more demanding trifluoracetyl group is readily hydrolyzed by the catalytically less avid Class IIa enzymes, allowing measurement of Class IIa activity using the 2-step fluorogenic assay. […]
as §2, with “With the exception of purified catalytic domain HDAC4, which was prepared for us by Emerald Biosciences (Seattle, WA), all HDAC enzymes were purchased from BPS Bioscience (San Diego, CA).” left out

FXN = system: FXN; design: method as in PMID 16921367; details: at the concentration tested; cited from earlier work
[6] = cyclodextrin suspension targeted at 1 mg/ml, with heating

T1 sequence (O15379 whole entry): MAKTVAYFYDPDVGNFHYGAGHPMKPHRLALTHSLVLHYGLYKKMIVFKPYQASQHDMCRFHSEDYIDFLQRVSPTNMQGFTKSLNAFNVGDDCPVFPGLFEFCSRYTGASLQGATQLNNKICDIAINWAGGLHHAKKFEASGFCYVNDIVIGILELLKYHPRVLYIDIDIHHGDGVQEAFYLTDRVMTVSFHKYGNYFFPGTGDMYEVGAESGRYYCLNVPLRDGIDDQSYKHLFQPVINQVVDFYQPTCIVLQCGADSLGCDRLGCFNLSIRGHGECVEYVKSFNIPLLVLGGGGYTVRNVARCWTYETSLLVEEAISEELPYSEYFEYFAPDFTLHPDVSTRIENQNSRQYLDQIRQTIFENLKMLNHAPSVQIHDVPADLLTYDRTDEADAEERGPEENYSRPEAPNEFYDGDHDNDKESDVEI
T1 sequence (Q9Y618 395-489 partner limits assumed): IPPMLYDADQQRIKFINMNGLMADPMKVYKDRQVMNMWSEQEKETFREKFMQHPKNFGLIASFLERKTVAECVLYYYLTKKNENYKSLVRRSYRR

4b solubilised (after filtration), day 1 [1, 6]: 0.27 mg/mL | total 4b measured in suspension, day 1 [1, 6]: 0.75 mg/mL | solubility in DMSO ([1]; prepared at 1 mg/ml): soluble | solubility in water ([1]; salt forms): < 1000 µg/mL | day 7 value as % of value at day 1 ([2]; 1 mg/ml in DMSO): 59% | decrease in parent (4b) concentration, day 7 compared to day 1 ([2]; cyclodextrin suspension, dark, gentle shaking, room temperature): 28% | cyclisation to benzimidazole product in solution ([2]; eg. aqueous acetonitrile, ambient temperature, more rapidly when heated): cyclised slowly | 4b dissolved (filtrate of suspension) [3]: 0.3 mg/mL
Compound: Cc1ccc(NC(=O)CCCCCC(=O)Nc2ccccc2N)cc1.O=C(O)C(F)(F)F [4b. TFA]

share of the metabolism of parent accounted for by metabolite [4]: 42% | IC50 (HDAC3-NcoR2): 26 µM | share of the metabolism of parent accounted for by metabolite (Plasma stability; parent 4b): 78%
Compound: Nc1ccccc1NC(=O)CCCCCC(=O)O [Compound M1]
activity in the Class I cellular HDAC (Boc_Lys_Ac) assay [5]: totally inactive; also recorded: neither inhibits HDACs

share of the metabolism of parent accounted for by metabolite (Plasma stability; parent C1): 80%
Compound: O=C(O)CCCCCc1nc2ccccc2[nH]1 [Compound M3]
activity in the biochemical HDAC assays (HDACs): inactive | activity in the Class I cellular HDAC (Boc_Lys_Ac) assay [5]: inactive

Compound: BML-210 [reference compound]
effect on FXN mRNA (FXN): increase FXN mRNA without cytotoxicity
